Experimental data published in patent US12441757B2, “Platform for screening NAD+ binding proteins in a cellular context” (OREGON HEALTH & SCIENCE UNIVERSITY, priority 2020, dated 2025).

What was measured:
[1] = test system: inosine monophosphate dehydrogenase; conditions: cited from earlier work
Adenylate kinase 1 (AK1) = target: T1, Adenylate kinase 1 (AK1) (Homo sapiens, UniProt P00568); assay: Labeling of recombinant AK1 by 2-ad-BAD and nucleotide competition; format: binding; conditions: 150 μM competitor, 0.3 μM 2-ad-BAD
T1 construct: purchased Novus Biologicals NBP1-50855
T1 sequence (P00568 1-194): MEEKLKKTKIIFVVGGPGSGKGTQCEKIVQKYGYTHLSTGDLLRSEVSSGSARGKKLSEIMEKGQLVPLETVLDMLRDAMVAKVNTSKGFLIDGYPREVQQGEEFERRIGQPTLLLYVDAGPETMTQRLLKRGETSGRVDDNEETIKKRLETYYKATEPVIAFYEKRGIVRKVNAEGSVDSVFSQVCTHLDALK
Procedure: FIG. 10. Validation of Adenylate kinase 1 (AK1) as a putative NAD^+/NADH binding protein. […] Recombinant AK1 (500 nM) in 100 mM NaCl, 50 mM HEPES [pH 7.4], 4 mM MgCl2, 0.2 mM TCEP was incubated with 150 μM of indicated competitor molecule for 10 min, followed by 10 min treatment with 0.3 μM 2-ad-BAD. Samples were then subjected to UV light for 5 min, conjugated to TAMRA using Click chemistry, separated by SDS-PAGE and in-gel fluorescence was recorded. […] (FIG. 10B) A differential scanning fluorimetry assay is supportive of NADH as novel AK1 ligand. Recombinant AK1 (0.1 mg/mL) in 100 mM NaCl, 50 mM HEPES, pH 7.4, 4 mM MgCl2, 7.5× SYPRO Orange was tested for thermal stability in the absence or presence of indicated nucleotides at 1 mM. Ordinate reports on the difference of melt peak temperature prompted by indicated treatments. Data are mean±SEM of 3 independent experiments.
Treatments. Recombinant PARP-1 (250 nM), PARP-10 (250 nM) or AK1 (500 nM; Novus Biologicals) were diluted in 100 mM NaCl, 50 mM HEPES [pH 7.4], 4 mM MgCl2, 0.2 mM TCEP. PARP-1 reactions also contained 10 μg/mL of activated calf thymus DNA (Sigma-Aldrich D4522), unless otherwise noted. In experiments reported in FIG. 2, the samples were treated with 0.1 μM 2-ad-BAD or ad-olaparib for 10 min. In competition experiments reported in FIG. 3 and Figure S3, samples were first treated with 150 μM of indicated nucleotides for 10 minute and then with 0.3 μM 2-ad-BAD for additional 10 min. All treatments occurred at RT. Samples were then kept in the dark or irradiated for 5 min in the RPR-100 Photochemical Reactor (Rayonet) equipped with 350 nm lamps at 4° C.
Click Chemistry. 25 μL of each sample was mixed with 5 μL of fatty acid free BSA and SDS to give a final Click reaction concentration of 1 mg/mL and 1%, respectively. Click reactions were started by adding 15 μL of PBS based 3× click reaction mix (final 1× concentrations shown): 100 μM Tris[(1-benzyl-1H-1,2,3triazol-4-yl)methyl]amine (TBTA, Click Chemistry Tools), 1 mM CuSO4, 40 μM tetramethylrhodamine (TAMRA)-azide (Click Chemistry Tools), 1 mM Tris(2-carboxyethyl)phosphine hydrochloride (TCEP, Thermo Fisher) and 5% tert-Butyl alcohol to each sample, and let to proceed for 1 h at RT while gently shaking. Reactions were stopped by adding 4× Laemmli sample buffer and boiling at 95° C. for 5 min.
In gel fluorescence and staining. Samples were loaded to 10 or 12% SDS-polyacrylamide gels and run until the dye front left the gel. In-gel fluorescence was detected with ChemiDoc XRS+ (Biorad) using Rhodamine filter and then the gels were stained with Coomassie blue or Silver using standard protocols.

PARP-1 = target: T2, PARP-1 (Homo sapiens, UniProt P09874); assay: In vitro PARP-1 auto-PARylation activity assay; format: biochemical; conditions: dose response; activated DNA, 50 μM NAD^+, anti-ADPr immunoblot
T2 construct: Full length His6-PARP-1 and His6-SUMO-PARP-10 proteins we expressed and purified; His6 (N); made in house
Procedure: FIG. 5. A clickable NAD^+ PAL probe (2-ad-BAD) inhibits PARP-1 and PARP-10 activity in concentration response. (FIG. 5A) 50 nM of recombinant His6-PARP-1 was incubated with 10 μg/mL activated DNA in 100 mM NaCl, 50 mM HEPES [pH 7.4], 4 mM MgCl2, 0.2 mM TCEP for 10 min, then treated with indicated competitor (BAD or the PARP-1 inhibitor NMS-P118) for additional 10 min. 50 μM NAD^+ was then added to initiate auto-PARylation of PARP-1. After 10 min, the reaction was quenched by addition of 4× Laemmli sample buffer and boiling at 95° C. for 5 min. Protein samples were separated by SDS-PAGE, transferred onto nitrocellulose and probed with indicated antibodies. (FIG. 5B) Experiments were performed essentially as in (5A) with the exception that damaged DNA was omitted and the PARP-10 inhibitor ITK6 was used instead of NMS-P118. (FIG. 5C) Densitometry analyses of (5A) and (5B) comparing inhibitory effect of BAD on PARP-1 and PARP-10 auto-ADP-ribosylation. Data are mean±SEM of 3 independent experiments. […]
Samples were run on 10% or 12% acrylamide gels for ˜1 h at 180 V in Mini-PROTEAN Tetra cell (Biorad). […] Band intensities we quantified with ImageJ.

T2 sequence (P09874 whole entry): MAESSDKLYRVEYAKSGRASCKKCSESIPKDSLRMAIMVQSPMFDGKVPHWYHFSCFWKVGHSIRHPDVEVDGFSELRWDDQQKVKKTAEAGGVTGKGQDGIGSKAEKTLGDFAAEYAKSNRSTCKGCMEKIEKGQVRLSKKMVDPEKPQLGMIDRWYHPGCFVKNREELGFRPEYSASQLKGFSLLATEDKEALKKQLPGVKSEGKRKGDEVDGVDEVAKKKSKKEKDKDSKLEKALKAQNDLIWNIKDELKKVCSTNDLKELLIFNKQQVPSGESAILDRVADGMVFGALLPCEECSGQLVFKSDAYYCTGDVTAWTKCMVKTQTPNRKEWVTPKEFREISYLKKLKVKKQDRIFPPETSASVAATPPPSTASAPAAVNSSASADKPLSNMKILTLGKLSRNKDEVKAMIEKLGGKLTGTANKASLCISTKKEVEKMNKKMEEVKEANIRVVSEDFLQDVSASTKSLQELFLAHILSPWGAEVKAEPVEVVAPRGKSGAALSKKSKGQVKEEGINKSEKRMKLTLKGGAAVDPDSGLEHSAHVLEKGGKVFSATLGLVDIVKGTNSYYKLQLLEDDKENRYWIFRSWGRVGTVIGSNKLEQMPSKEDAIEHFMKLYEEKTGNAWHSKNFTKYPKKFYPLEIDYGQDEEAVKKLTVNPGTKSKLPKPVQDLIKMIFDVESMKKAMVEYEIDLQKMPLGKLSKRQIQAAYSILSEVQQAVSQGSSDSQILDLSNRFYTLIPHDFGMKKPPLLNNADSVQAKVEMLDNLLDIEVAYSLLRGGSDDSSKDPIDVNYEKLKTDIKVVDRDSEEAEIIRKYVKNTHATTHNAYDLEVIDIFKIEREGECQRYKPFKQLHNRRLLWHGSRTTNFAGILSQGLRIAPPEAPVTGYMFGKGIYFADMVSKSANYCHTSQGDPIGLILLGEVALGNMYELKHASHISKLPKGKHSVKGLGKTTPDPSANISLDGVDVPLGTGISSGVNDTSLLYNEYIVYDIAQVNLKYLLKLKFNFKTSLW

Q: Which “binding to and inhibition of NAD^+/NADH binding enzymes (e.g., inosine monophosphate dehydrogenase)” value [1] does the source give for `NC(=O)c1cccc([C@@H]2O[C@H](COP(=O)(O)OP(=O)(O)OC[C@H]3O[C@@H](n4cnc5c(N)ncnc54)[C@H](O)[C@@H]3O)[C@@H](O)[C@H]2O)c1` [BAD, benzamide adenine dinucleotide] here?
A: binds to and inhibits

Q: And the “competition of 2-ad-BAD labeling of recombinant AK1” value (Adenylate kinase 1 (AK1))?
A: effectively competed

Q: And the “inhibition of PARP-1 auto-PARylation” value (PARP-1)?
A: inhibited
